# Results from ChEMBL document CHEMBL2380261, “Analogs design, synthesis and biological evaluation of peptidomimetics with potential anti-HCV activity” (Bioorg Med Chem, 2013).
# Tests used:
# [1] = Safety index, ratio of CC50 for human Huh7.5 cells to EC50 for Hepatitis C virus subtype 2a J6/JFH
# [2] = Cytotoxicity against human Huh7.5 cells assessed as cell viability after 48 hrs by Alamar blue assay
# [3] = system: Hepatitis C virus; assay: microbe, parasite or virus in culture; assay type: functional, organism-based, Hepacivirus hominis; conditions: genotype 2a J6/JFH, Huh-7, 48 h
# [4] = Inhibition of HCV NS3 protease (1027 to 1206) after 30 mins in presence of Pep4AK; design: species or system Hepacivirus hominis
SMILES,selectivity ratio [1],CC50 at 48 h [2] [nM],EC50 [3] [nM],IC50 [4] [nM]
CC(C)[C@H](NC(=O)CCC(=O)/C=C/c1ccccc1)C(=O)O,> 4.45,> 100000,22500,
C[C@H](NC(=O)CCC(=O)/C=C/c1ccc2c(c1)OCO2)C(=O)O,2.22,12100,5440,
CCOS(=O)(=O)/C=C/[C@H](Cc1ccccc1)NC(=O)OC(C)(C)C,2.88,3500,1210,
CCOS(=O)(=O)/C=C/[C@H](Cc1ccccc1)NC(=O)CCC(=O)/C=C/c1ccccc1,,1000,296,
CCOS(=O)(=O)/C=C/[C@H](Cc1ccccc1)NC(C)=O,3.75,7910,2110,
CCOS(=O)(=O)/C=C/[C@@H](NC(C)=O)[C@@H](C)O,6.36,27700,4360,
CC(C)C[C@H](NC(=O)[C@]1(Cc2ccsc2C(=O)O)Cc2ccccc2N1)C(=O)N[C@@H](CC(F)F)C(=O)C(=O)O,,,,700
COC(=O)[C@H](C)NC(=O)CCC(=O)/C=C/c1ccccc1,1.37,1320,960,
COC(=O)[C@@H](NC(=O)CCC(=O)/C=C/c1ccccc1)C(C)C,3.88,1480,381,
COC(=O)[C@H](C)NC(=O)CCC(=O)/C=C/c1cccnc1,2.34,2110,900,
COC(=O)[C@@H](NC(=O)CCC(=O)/C=C/c1cccnc1)C(C)C,1.38,1570,1140,
COC(=O)[C@H](C)NC(=O)CCC(=O)/C=C/c1ccc2c(c1)OCO2,3.19,1110,347,
COC(=O)[C@@H](NC(=O)CCC(=O)/C=C/c1ccc2c(c1)OCO2)C(C)C,2.83,1390,682,
CC(C)(C)NC(=O)N[C@H](C(=O)N1C[C@H]2[C@@H]([C@H]1C(=O)NC(CC1CCC1)C(=O)C(N)=O)C2(C)C)C(C)(C)C (stereo partly drawn) [BOCEPREVIR],,> 100000,800,
